The results in this text go back to ChEMBL document CHEMBL4483862, “Open-source discovery of chemical leads for next-generation chemoprotective antimalarials” (2018).

The test system of this test is Plasmodium berghei. Put plainly: Luciferase/luciferin-expressing antifolate-resistant parasites were used to infect a culture of HepG2 cells that were pre-incubated with compounds. Infected hepatocytes emit light due to the luciferase reaction. Assay results are presented as the percent inhibition of light emission compared to control. […]. The class given is functional. To be noted: sporozoite; for IC50: read-out: LUCIFERASE INFECTION ASSAY - IC50; for IC90: read-out: LUCIFERASE INFECTION ASSAY - IC90.

The structures appear in SMILES notation.

A word on the IC50: it is the point on the concentration scale where inhibition reaches its midpoint. As usually defined, the IC90 is the concentration at which the effect reaches the 90% level. For the molecule `CCC1(c2ccc(F)cc2)NC(=O)N(CC(=O)Nc2ccc(-c3nc4ccc(C)cc4s3)cc2)C1=O` (centres undefined), the IC50 was found to be 9.87 µM and the IC90 is more than 10 µM.
For the molecule `O=C(/C=C/c1ccc(N2CCCCC2)c([N+](=O)[O-])c1)c1ccc(O)cc1`, the half-maximal inhibitory concentration (IC50) stood at 9.61 µM and the IC90 was more than 10 µM.
Taken in the same sequence, the figures for `CC(C)N(Cc1ccccc1)C(=S)NC(=O)C1(C)CC1(Cl)Cl` (centres undefined) were more than 10 µM and more than 10 µM.
Take `CCOC(=O)c1c(C)[nH]c(C)c1C(=O)COC(=O)c1c(OC)cccc1OC`: the IC50 is more than 10 µM and the concentration for an effect of 90% (IC90) is more than 10 µM.
For the molecule `CCc1cccc(CC)c1NC(=O)/C(C#N)=C/c1ccccc1C(F)(F)F`, the 50% inhibitory concentration (IC50) is 3.68 µM and the concentration for an effect of 90% (IC90) is 4.5 µM.
Turning to `CCOCCCNC(=O)/C(C#N)=C/c1ccc(Cl)c([N+](=O)[O-])c1`, the IC50 was found to be 5.19 µM and the IC90 is 9.95 µM.
Regarding `OC(CNCCc1ccc(Cl)cc1Cl)COc1ccccc1` (centres undefined), the IC50 was more than 10 µM and the IC90 is more than 10 µM.
As for `CCc1cccc(NC(=O)C[n+]2c3n(c4ccc(C(F)(F)F)cc42)CCCCC3)c1`, the IC50 is 2.8 µM and the 90% effect concentration (IC90) amounted to 8.61 µM.
Turning to `Cc1nc(NCc2ccco2)c2c(C)c(C)sc2n1`, the IC50 was found to be 3.73 µM and the concentration for an effect of 90% (IC90) amounted to 4.47 µM.
For the molecule `Cc1nn(-c2ccccc2)c(N2CCCC2)c1/C=N/O`, the IC50 was more than 10 µM and the IC90 was more than 10 µM.
As for `Cc1nc(N/N=C/c2ccc(O)cc2)c2cnn(-c3ccccc3)c2n1`, the IC50 was more than 10 µM and the IC90 is more than 10 µM.
`Cc1ccc(C23CC4CC(CC(C(=O)N5CCN(CCc6ccccc6)CC5)(C4)C2)C3)cc1`: the IC50 was more than 10 µM and the IC90 is more than 10 µM.
For `O=C(Nc1cc(C(F)(F)F)ccc1Cl)C(Sc1nnc(Cc2cccs2)n1CCc1ccccc1)c1ccccc1` (centres undefined), the concentration for half-maximal inhibition (IC50) amounted to 5.35 µM and the IC90 was more than 10 µM.
Turning to `Cc1cccc(C)c1/N=c1\scc(-c2cccc(Cl)c2)n1/N=C/C1CC=CCC1` (centres undefined), the IC50 was more than 10 µM and the IC90 was more than 10 µM.
Consider `Cc1ccc2c(c1)C1CN(C)CCC1N2C(=O)c1cc(-c2ccc(F)cc2)nc2ccccc12` (centres undefined), for which the IC50 was more than 10 µM and the IC90 is more than 10 µM.
For the molecule `Cc1cc(C)c(S(=O)(=O)Nc2cc3c(C(=O)Nc4ccccc4)c(C)oc3c3ccccc23)c(C)c1`, the 50% inhibitory concentration (IC50) was more than 10 µM and the IC90 is more than 10 µM.
With `COc1ccc(-c2cc(C(=O)NNC(=S)NC3CC4CCC3C4)[nH]n2)cc1` (centres undefined), the IC50 was more than 10 µM and the IC90 is more than 10 µM.
Turning to `O=C(Cn1ncc(Cl)c(Cl)c1=O)NCCC(c1ccccc1)c1ccccc1`, the IC50 is 5.37 µM and the IC90 worked out at 7.67 µM.
Take `CN(C)c1nc(N)c2c(N)nc3c(cc(O)n3C(=O)NC34CC5CC(CC(C5)C3)C4)c2c1C#N`: the IC50 was determined as 5.64 µM and the IC90 is more than 10 µM.
Turning to `CCOc1ccc(C=C(c2nc3ccccc3s2)c2nc3ccccc3s2)c(O)c1`, the IC50 turned out to be 6.72 µM and the IC90 was more than 10 µM.
Regarding `O=C(N/N=C1/C(=O)c2cccc3cccc1c23)c1cccc(S(=O)(=O)N2CCCCC2)c1`, the IC50 was more than 10 µM and the 90% effect concentration (IC90) is more than 10 µM.
For `C=CC/N=c1\scc(-c2ccc(Br)s2)n1/N=C/c1ccccc1[N+](=O)[O-]`, the IC50 was more than 10 µM and the IC90 is more than 10 µM.
On to `Cc1coc(C)c1C(=O)/C=C/c1ccc2cccnc2c1`, for which the IC50 stood at 2.51 µM and the IC90 came to 2.69 µM.
For `CCOc1ccc(/C=C2\CCCC3C2=NN(C(=O)C2(S(=O)(=O)c4ccccc4)CC2)C3c2ccc(OCC)cc2)cc1` (centres undefined), the IC50 was determined as 5.63 µM and the IC90 was more than 10 µM.
As to `CC(C)(C)c1ccc(-c2nnc(SCC(=O)N3CCc4ccccc4C3)n2Cc2ccccc2)cc1`, the half-inhibitory concentration (IC50) was more than 10 µM and the IC90 is more than 10 µM.
`COc1ccc(/C=C2\CCCc3c2nc2ccccc2c3C(=O)OCc2cccc(C(F)(F)F)c2)cc1OC`: the concentration for half-maximal inhibition (IC50) was more than 10 µM and the IC90 was more than 10 µM.
Regarding `O=C(/C=C/c1ccccc1[N+](=O)[O-])c1cccc(C(F)(F)F)c1`, the IC50 stood at 4.89 µM and the concentration for an effect of 90% (IC90) is 5.08 µM.
As for `CCOC(=O)c1c(-c2ccccc2)oc2ccc(N(C(C)=O)S(=O)(=O)c3ccc4ccccc4c3)cc12`, the IC50 was 6.33 µM and the IC90 was more than 10 µM.
With `Cn1c(N)c(C(=O)COC(=O)c2c3c(nc4ccccc24)/C(=C/c2ccc(O)cc2)CCC3)c(=O)n(C)c1=O`, the IC50 came out at 2.66 µM and the IC90 was 6.45 µM.
Regarding `CCOC(=O)/C(=N\Nc1cc(C(F)(F)F)ccc1Cl)N1CCN(C(c2ccccc2)c2ccccc2)CC1`, the IC50 turned out to be 4.97 µM and the 90% effect concentration (IC90) was more than 10 µM.
Taken in the same sequence, the figures for `Cc1ccc(C)c(S(=O)(=O)N(Cc2nnc(-c3ccc(Cl)cc3)o2)c2cccc(C(F)(F)F)c2)c1` were more than 10 µM and more than 10 µM.
As for `O=C(Nc1sc2c(c1CN1CCN(C(=O)c3ccco3)CC1)CCCC2)c1ccccc1F`, the IC50 was more than 10 µM and the 90% effect concentration (IC90) was more than 10 µM.
Take `CN(c1ccccc1)S(=O)(=O)c1cccc(NC(=O)Nc2ccccc2[N+](=O)[O-])c1`: the IC50 was more than 10 µM and the IC90 was more than 10 µM.
For `COc1cc(OC)c(C(=O)/C=C/c2cnc(N3CCCC3)nc2)cc1Cl`, the IC50 amounted to 7.4 µM and the IC90 was more than 10 µM.
Taken in the same sequence, the figures for `COC(=O)c1ccccc1NC(=O)/C=C/c1ccc(N2CCCS2(=O)=O)cc1` were 2.97 µM and 6.74 µM.
For the molecule `COC(=O)c1ccc(/C=C/C(=O)OCC(=O)C(C#N)=C2Nc3ccccc3N2)cc1`, the IC50 is more than 10 µM and the IC90 was more than 10 µM.
With `Cc1cc(C)cc(NC(=O)C(NNC(=O)CC23CC4CC(CC(C4)C2)C3)c2ccccc2)c1` (centres undefined), the concentration for half-maximal inhibition (IC50) was more than 10 µM and the IC90 was more than 10 µM.
Take `Cc1cc(=O)n2nc(CSc3ncc(-c4ccccc4)n3-c3c(C)cccc3C)sc2n1`: the IC50 was 2.38 µM and the IC90 turned out to be 5.16 µM.
Taken in the same sequence, the figures for `Cc1cc(C(=O)N(C(=O)NC2CCCCC2)C2CCCCC2)c(C)n1-c1ccccc1` were 1.12 µM and 8.67 µM.
In the case of `COc1ccccc1C(=O)OC(c1ccc(NC(=O)c2ccc(OC(F)F)cc2)cc1)(C(F)(F)F)C(F)(F)F`, the IC50 is 3.51 µM and the IC90 came out at 4.33 µM.
Turning to `CC(OC(=O)c1ccc(C(C)C)cc1)C(=O)Nc1sccc1C(N)=O` (centres undefined), the IC50 was more than 10 µM and the IC90 was more than 10 µM.
On to `Cc1sc(NC(=O)c2ccco2)c(C(c2cccc(C(F)(F)F)c2)N2CC(C)CC(C)C2)c1C` (centres undefined), for which the IC50 worked out at 6.14 µM and the IC90 is more than 10 µM.
For the molecule `Cc1ccc(S(=O)(=O)c2c(C)nn(C(C)(C)C)c2OC(=O)c2cccc([N+](=O)[O-])c2)cc1`, the IC50 is more than 10 µM and the IC90 is more than 10 µM.
Turning to `Cc1cnc(NC(=O)c2ccc(C3SCCS3)cc2)s1`, the IC50 was 0.273 µM and the IC90 was more than 10 µM.
Turning to `O=C(Nc1ccc(-c2nc3ccccc3[nH]2)cc1)c1cnn(-c2ccccc2)c1C1CC1`, the IC50 worked out at 3.31 µM and the IC90 is 3.59 µM.
In the case of `CC(Nc1ccc(C(F)(F)F)cc1[N+](=O)[O-])C(=O)Nc1ccccc1C(=O)Nc1cccc(Cl)c1` (centres undefined), the IC50 was more than 10 µM and the concentration for an effect of 90% (IC90) was more than 10 µM.
As for `C=CCn1c(SCc2c(C(=O)OCC)sc(N)c2C#N)nnc1-c1ccc(Cl)cc1Cl`, the IC50 was more than 10 µM and the IC90 was more than 10 µM.
